Patent US7750031B2, “Caffeic acid derivative and composition containing the same” (Thefaceshop Korea Co., Ltd., priority 2007, dated 2010)

Experiment: solubility measurement in purified water and ethanol
Settings: for density up to which dissolved: 25° C.

O=C(O)/C=C/c1ccc(O)c(O)c1 [caffeic acid]
solubility (ethanol (25° C.), density 1 mg/mL): dissolved
solubility (ethanol (25° C.), density 10 mg/mL): dissolved
solubility (ethanol (25° C.), density 100 mg/mL): not dissolved
density up to which dissolved (ethanol): ≥ 10 mg/mL
solubility (purified water (25° C.), density 1 mg/mL): not dissolved
solubility (purified water (25° C.), density 10 mg/mL): not dissolved
solubility (purified water (25° C.), density 100 mg/mL): not dissolved
density up to which dissolved (purified water): not dissolved
